Patent US20250255882A1, “TREATMENT OF CARDIAC CONDITION RELATED COGNITIVE DYSFUNCTION” (The Trustees of Columbia University in the City of New York, priority 2024, published 2025)

What was measured:
[1] = tested on: mouse model of HF (myocardial infarction, MI); assay: open field test and elevated plus maze (EPM) test; format: in vivo; details: MI mice, treated
Excerpt: FIGS. 2A-2G illustrate a mouse model of heart failure (myocardial infarction) that is associated with cognitive dysfunction. […] One-way analysis of variance (ANOVA) was used to compare the difference between the six groups in FIGS. 2B, 2C, 2E and 2F. Tukey's test was used for multiple comparisons; two-way ANOVA was used in FIG. 2D. […] All statistical tests were two sided with the data derived from biologically independent samples.
Because of the complexity of the clinical manifestation of HF patients, the mouse model of HF (myocardial infarction, MI) was used with reduced ejection fraction to evaluate the mechanisms of CD. The open field test and elevated plus maze (EPM) test were used to evaluate the behavioral phenotypes, and spontaneous exploratory activity in the mice. In the open field test, mice were placed at the center of a chamber and allowed to explore for 6 min. […] In the EPM test, MI mice spent […] time in the open arms of the EPM (FIG. 2B) compared to SHAM (0.22±0.04 versus 0.14±0.02; P<0.05). […] As a control, the effects of a Rycal®, ARM036, was studied.

[2] = tested on: mouse model of HF (myocardial infarction, MI); assay: novel object recognition test (hippocampal-dependent short-term memory); format: in vivo; details: MI mice, treated; MI 15%±4%, SHAM 48%±5%
Excerpt: (§1) One-way analysis of variance (ANOVA) was used to compare the difference between the six groups in FIGS. 2B, 2C, 2E and 2F. Tukey's test was used for multiple comparisons; two-way ANOVA was used in FIG. 2D. […] All statistical tests were two sided with the data derived from biologically independent samples.
Next, a novel object recognition test was used to evaluate hippocampal-dependent short-term memory. (see Liu, X. et al. Role of leaky neuronal ryanodine receptors in stress-induced cognitive dysfunction. Cell 150, 1055-1067 (2012); and Bevins, R. A. & Besheer, J. Object recognition in rats and mice: a one-trial non-matching-to-sample learning task to study ‘recognition memory’. Nat. Protoc. 1, 1306-1311 (2006)).

[3] = tested on: mouse model of HF (myocardial infarction, MI); assay: MWM test (long-term spatial learning and memory) with probe trial; format: in vivo; details: MI mice, treated; for latency to find and reach the hidden platform: day 4 training trials, MI 30±1 s, SHAM 21±2 s
Experimental: as §1
A MWM test was performed to assess hippocampal-dependent long-term spatial learning and memory.
A probe trial was performed on day 5 of the MWM test.

MI mice [4] = assay: long-term potentiation (fEPSPs) in hippocampal slices; format: in vivo, mouse; details: slices from treated MI mice; MI decreased LTP versus SHAM
Experimental: (§2) FIG. 4A is a schematic representation of a hippocampal brain slice for LTP experiments and the positioning of the stimulating and recording electrodes.
Field excitatory postsynaptic potentials (fEPSPs) were evaluated at the Schaffer collateral using a bipolar electrode placed at the CA3 and recording at the CA1 (FIG. 4A). […] Importantly, MI and treatment with the various compounds after MI had no effect on basal synaptic transmission determined by the input-output curves (I-O; P=0.5; FIG. 4D).

MI mice [5] = assay: hippocampal FDG metabolism by microPET; format: in vivo, mouse; details: treated MI mice; percentage of the FDG uptake in the SHAM mice (SHAM 100±3, MI 70±3)
Excerpt: as §2
Thereafter, [^18F]fluorodeoxyglucose (FDG) with positron emission tomography (PET) was used to measure energy consumption in neurons, which reflects neuronal communication signals and the integrative local neuronal activity. Deteriorating brain glucose metabolism measured by FDG-PET has been used as a clinical marker for Alzheimer's disease diagnosis. Thus, hippocampal FDG metabolism was evaluated in the experimental groups (FIGS. 4E and 4F).

adrenergic pathway = assay: hippocampal norepinephrine levels and PKA activity; format: in vivo, mouse; details: treated versus untreated MI mice
Experimental: The hippocampal levels of norepinephrine and PKA activity were measured.

TGF-β pathway = assay: immunoblots of TGF-β, phosphorylated SMAD3 and NOX2 binding to RyR2 in hippocampi; format: in vivo, mouse; details: hippocampi of treated MI mice
Excerpt: FIG. 12A includes immunoblots showing expressing levels of TGF-β, phosphorylated SMAD3, total SMAD3, and NOX2 binding to RyR2 in the hippocampi of controls (n=4) and HF patients (n=9). FIG. 12B includes bar graphs depicting the ratio of TGF-β expression normalized to GAPDH, phosphorylated SMAD3 to total SMAD3 and NOX2 binding to RyR2 (IP RyR2). The same quantity of proteins was loaded on two separate gels and blotted separately for SMAD3 and pSMAD3. Individual values are shown with mean±SEM (t-test * p<0.05, Controls vs. HF patients). […] FIG. 12D includes bar graphs depicting the ratio of TGF-β expression normalized to GAPDH, phosphorylated SMAD3 to total SMAD3 and NOX2 binding to RyR2 (IP RyR2). The same quantity of proteins was loaded on two separate gels and blotted separately for SMAD3 and pSMAD3. Individual values are shown with mean±SEM. […] All statistical tests were two-sided. Data are derived from biologically independent samples.
TGF-β has been implicated in CNS disorders including Alzheimer's disease.

[6] = blood-brain barrier crossing
RyR2 [7] = target: RyR2 (Homo sapiens, UniProt Q92736); details: previously identified binding site; cited from earlier work
RyR2 [8] = target: RyR2 (Mus musculus, UniProt E9Q401); assay: caffeine-induced Ca2+ release in primary hippocampal neurons; format: cell-based; set-up: representative images of 14-d cultured hippocampal neurons stimulated with 10 mM caffeine; endogenous in cells; host or cells: primary hippocampal neurons, 14 d in culture; details: 10 mM caffeine; hippocampal neurons treated with the adrenergic agonist alone
Experimental: FIG. 5A presents representative images of 14-d cultured hippocampal neurons stimulated with 10 mM caffeine. For each condition, the Ca^2+ levels are shown at baseline, during stimulation and at recovery. […] Individual values are shown with the mean±s.e.m. […] Scale bar, 10 μm. A reduction in caffeine-induced Ca^2+ release indicates a Ca^2+ depleted ER due to persistent RyR2-mediated Ca^2+ leak. Data are derived from biologically independent samples. All statistical tests were two sided.
To determine whether the activation of the adrenergic pathway indeed causes neuronal RyR2-mediated ER Ca^2+ leak, caffeine (10 mM), a well characterized RyR agonist, was used to assess RyR2 function specifically in hippocampal neurons without interference of other cell types such as glial cells or astrocytes.

Chain of RyR2 (Mus musculus, UniProt E9Q401) (E9Q401 whole entry): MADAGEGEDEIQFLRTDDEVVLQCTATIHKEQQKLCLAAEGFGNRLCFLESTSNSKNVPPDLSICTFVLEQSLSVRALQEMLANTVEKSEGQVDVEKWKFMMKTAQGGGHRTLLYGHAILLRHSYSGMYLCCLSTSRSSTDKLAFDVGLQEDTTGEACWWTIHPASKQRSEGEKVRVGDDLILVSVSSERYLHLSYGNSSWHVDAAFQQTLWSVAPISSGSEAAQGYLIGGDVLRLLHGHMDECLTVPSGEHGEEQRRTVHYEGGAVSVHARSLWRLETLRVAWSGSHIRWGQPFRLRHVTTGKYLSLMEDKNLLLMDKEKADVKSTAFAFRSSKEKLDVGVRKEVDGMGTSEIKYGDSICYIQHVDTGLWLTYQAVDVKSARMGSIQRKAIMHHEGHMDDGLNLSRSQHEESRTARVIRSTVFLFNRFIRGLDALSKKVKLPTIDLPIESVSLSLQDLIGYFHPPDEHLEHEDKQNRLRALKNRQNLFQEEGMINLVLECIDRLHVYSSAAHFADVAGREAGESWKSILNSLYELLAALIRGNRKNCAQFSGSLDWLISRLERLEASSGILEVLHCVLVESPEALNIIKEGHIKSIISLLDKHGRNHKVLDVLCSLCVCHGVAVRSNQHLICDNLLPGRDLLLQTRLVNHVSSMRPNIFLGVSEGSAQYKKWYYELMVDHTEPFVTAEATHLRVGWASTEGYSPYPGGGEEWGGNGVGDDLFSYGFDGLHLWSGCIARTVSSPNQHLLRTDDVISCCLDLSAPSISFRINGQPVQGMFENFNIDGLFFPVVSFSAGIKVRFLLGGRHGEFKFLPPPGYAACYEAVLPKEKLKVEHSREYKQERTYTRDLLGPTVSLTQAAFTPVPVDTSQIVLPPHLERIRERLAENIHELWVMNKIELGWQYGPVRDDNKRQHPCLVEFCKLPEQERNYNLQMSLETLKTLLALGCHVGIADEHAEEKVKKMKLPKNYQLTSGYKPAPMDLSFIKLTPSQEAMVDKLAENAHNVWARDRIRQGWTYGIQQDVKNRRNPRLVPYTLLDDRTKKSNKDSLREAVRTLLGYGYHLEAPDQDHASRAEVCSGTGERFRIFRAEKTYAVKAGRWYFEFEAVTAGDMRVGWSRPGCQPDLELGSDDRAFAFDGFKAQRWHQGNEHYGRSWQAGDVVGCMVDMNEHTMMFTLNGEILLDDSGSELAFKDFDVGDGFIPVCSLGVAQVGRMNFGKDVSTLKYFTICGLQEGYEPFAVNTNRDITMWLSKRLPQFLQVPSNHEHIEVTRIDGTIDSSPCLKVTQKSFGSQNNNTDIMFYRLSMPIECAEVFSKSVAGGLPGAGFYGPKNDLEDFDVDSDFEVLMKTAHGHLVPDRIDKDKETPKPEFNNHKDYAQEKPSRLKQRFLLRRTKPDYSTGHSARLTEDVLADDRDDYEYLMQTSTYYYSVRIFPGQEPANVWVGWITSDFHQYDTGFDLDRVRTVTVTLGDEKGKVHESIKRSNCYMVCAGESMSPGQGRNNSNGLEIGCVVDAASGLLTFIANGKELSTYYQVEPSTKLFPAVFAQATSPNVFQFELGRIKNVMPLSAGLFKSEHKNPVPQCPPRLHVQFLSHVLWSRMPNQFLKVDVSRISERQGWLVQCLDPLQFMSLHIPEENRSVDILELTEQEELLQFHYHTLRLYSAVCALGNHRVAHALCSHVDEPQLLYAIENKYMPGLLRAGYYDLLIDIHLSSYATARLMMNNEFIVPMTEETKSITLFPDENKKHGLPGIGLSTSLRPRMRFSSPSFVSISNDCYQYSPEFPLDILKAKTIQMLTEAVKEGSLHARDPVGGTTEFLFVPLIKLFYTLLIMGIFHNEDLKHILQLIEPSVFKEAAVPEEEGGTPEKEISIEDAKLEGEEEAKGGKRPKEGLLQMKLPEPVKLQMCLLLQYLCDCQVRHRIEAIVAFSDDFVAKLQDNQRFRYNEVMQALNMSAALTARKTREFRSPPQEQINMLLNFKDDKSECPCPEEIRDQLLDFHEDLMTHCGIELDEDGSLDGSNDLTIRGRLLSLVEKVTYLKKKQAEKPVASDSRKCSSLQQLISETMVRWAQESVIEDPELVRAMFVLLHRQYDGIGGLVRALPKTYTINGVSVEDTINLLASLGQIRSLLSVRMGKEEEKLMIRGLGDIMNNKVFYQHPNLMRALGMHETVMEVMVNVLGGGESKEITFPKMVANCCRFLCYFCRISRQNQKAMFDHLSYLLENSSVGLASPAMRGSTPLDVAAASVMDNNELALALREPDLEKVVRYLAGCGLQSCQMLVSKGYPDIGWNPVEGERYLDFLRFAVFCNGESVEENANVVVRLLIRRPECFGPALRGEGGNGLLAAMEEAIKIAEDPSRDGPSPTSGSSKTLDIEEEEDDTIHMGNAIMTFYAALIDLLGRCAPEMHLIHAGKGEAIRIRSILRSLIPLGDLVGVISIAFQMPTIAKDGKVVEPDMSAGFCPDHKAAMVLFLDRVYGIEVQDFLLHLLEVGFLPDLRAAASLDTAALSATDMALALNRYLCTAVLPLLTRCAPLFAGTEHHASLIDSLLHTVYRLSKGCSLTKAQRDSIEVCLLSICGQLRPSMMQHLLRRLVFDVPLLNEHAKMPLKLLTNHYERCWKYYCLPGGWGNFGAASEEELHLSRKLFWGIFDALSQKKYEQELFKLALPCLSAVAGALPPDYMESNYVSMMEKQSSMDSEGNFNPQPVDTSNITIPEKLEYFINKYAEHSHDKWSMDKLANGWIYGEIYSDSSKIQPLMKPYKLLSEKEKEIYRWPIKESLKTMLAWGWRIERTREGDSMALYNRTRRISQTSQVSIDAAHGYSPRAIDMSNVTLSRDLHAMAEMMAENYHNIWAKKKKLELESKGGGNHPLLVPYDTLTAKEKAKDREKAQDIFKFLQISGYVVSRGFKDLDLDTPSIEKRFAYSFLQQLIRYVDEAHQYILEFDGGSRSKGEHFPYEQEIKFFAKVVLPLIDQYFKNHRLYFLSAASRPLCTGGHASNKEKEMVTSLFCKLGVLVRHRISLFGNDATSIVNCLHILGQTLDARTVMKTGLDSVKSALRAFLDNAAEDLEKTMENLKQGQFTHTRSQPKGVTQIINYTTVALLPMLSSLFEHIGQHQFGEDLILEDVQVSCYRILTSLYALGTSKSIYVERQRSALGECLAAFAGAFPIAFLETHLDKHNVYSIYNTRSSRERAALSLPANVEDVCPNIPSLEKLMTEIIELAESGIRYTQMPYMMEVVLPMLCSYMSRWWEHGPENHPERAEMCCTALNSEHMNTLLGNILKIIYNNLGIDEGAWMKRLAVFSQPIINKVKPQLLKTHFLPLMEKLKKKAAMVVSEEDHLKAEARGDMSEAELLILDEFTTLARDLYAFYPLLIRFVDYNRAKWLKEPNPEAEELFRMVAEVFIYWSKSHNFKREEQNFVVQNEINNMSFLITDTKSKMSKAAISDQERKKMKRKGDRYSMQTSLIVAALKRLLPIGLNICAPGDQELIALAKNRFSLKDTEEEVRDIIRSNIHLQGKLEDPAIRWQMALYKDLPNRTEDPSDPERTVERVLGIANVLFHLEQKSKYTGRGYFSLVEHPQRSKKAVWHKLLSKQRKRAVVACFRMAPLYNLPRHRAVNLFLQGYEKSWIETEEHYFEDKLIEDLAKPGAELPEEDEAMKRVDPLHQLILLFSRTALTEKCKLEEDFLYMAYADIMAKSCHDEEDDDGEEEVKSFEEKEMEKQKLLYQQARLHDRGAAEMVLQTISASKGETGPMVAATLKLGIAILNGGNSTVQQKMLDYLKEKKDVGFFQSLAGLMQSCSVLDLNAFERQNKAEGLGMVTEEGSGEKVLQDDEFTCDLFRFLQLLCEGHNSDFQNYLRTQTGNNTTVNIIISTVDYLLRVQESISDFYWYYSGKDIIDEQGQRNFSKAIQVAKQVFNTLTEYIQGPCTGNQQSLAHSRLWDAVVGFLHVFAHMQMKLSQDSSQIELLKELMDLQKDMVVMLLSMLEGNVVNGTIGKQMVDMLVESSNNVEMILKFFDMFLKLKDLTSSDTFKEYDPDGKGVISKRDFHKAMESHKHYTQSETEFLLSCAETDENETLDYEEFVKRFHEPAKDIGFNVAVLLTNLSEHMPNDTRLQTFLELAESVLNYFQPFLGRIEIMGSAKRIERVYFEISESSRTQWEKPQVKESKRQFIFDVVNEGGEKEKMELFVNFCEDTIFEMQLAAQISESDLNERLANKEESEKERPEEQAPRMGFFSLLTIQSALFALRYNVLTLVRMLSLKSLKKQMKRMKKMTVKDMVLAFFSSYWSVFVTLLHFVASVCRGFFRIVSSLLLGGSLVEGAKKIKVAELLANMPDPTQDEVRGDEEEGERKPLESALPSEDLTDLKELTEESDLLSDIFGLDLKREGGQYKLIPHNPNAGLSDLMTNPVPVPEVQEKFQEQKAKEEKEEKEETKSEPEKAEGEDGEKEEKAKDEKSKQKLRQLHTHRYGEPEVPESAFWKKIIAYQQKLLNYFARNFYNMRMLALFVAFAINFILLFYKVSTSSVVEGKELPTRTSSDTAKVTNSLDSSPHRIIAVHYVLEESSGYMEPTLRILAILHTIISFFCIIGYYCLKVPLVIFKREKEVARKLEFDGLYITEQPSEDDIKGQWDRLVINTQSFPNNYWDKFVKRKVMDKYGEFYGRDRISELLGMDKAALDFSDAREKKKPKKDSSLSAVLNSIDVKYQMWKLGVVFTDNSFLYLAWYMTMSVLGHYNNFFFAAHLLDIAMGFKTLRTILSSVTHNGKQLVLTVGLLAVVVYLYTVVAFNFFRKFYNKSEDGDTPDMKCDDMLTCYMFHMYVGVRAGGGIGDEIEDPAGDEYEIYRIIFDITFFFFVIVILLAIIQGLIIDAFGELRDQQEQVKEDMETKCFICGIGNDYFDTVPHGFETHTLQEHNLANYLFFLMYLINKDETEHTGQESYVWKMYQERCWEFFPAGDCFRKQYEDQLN

Compound | latency to find and reach the hidden platform [3] [s] | hippocampal FDG metabolism (MI mice [5]) | PKA activity (adrenergic pathway) | brain norepinephrine (adrenergic pathway) | crossing of the blood-brain barrier (BBB) [6] | further results
COc1ccc2c(c1)CN(C(=O)C(=O)O)CCS2 [ARM036] | 29 ± 3 | 80±8 | no effect | no effect | does not cross the blood-brain barrier | abnormal behaviors in open field test (time center versus periphery) and EPM test (time open-arm versus closed-arm) [1]: no effect; discrimination index [2]: 15%±3%; LTP (hippocampal synaptic plasticity) (MI mice [4]): no effect; NOX2 binding to hippocampal RyR2 (TGF-β pathway): no effect; TGF-β levels (TGF-β pathway): no effect; phosphorylation of SMAD3 (TGF-β pathway): no effect
COc1ccc2c(c1)CN(Cc1ccc(C(=O)O)cc1)CCS2 [Compound 1] | – | – | – | – | – | effect on primed state of leaky channels (RyR2 [7]): reverse the primed state of leaky channels toward a fully closed state
COc1ccc2c(c1)CN(C)CCS2 [S107] | 20 ± 2 | 114±13 | no effect | no effect | BBB-permeant | target crossings ([3]; 60-s probe trial day 5, MI 2.4±0.3, SHAM 4.6±0.3): 4.2±0.3; time spent in the target quadrant ([3]; 60-s probe trial day 5, MI 17±1 s, SHAM 25±2 s): 26 ± 2 s
CC(C)NCC(O)c1ccc(O)c(O)c1 (centres unmarked) [isoproterenol] | – | – | – | – | – | caffeine-induced Ca2+ release (RyR2 [8]): small Ca^2+ release
